PMC11286609, “In vitro and in vivo analyses of eFAP: a novel FAP-targeting small molecule for radionuclide theranostics and other oncological interventions” (EJNMMI Radiopharmacy and Chemistry, 2024)

Experiments:
[1] = system: HT1080-huFAP cells; experiment: Radiotracer uptake assay in FAP-expressing cells; type: cell-based, human
Protocol: Cell experiments were performed with the human sarcoma HT1080 cell line, stably transduced with human FAP (HT1080-huFAP) which were kindly provided by Prof. Dr. Uwe Haberkorn from the University of Heidelberg. The wild type HT1080 (ATTC), hereafter HT080-WT, was used as a negative control. Additionally, the pancreatic stellate cells PS-1, obtained from Queen Mary University, were used as an endogenously FAP expressing cell line. HT1080-huFAP and HT1080-WT cells were cultured in DMEM Glutamax© (Gibco; Breda, The Netherlands) and the PS-1 cells were cultured in RPMI (Gibco). Both media were supplemented with 10% FBS (Gibco), 100 UI/mL penicillin, and 100 µg/mL streptomycin (Merck Life Science NV; Amsterdam, The Netherlands). All cell lines were regularly passaged at 80% confluence and cultured at 37 °C, 5% CO2.
In vitro displacement studies of eFAP-6 and eFAP-7, as well as specificity and uptake assays, were performed using HT0180-huFAP cells. One day prior to the assay 100,000 cells were seeded in a 12-well plate in triplicate. […] For the uptake assay, the cells were incubated with 1 nM [^111In]In-eFAP-6 or [^111In]In-FAPI-46 for different time points (5–120 min) in the presence and absence of 1 mM UAMC-1110 to determine the specificity of^111 radiotracer binding. In both assays, the cells were washed twice with PBS after incubation and were subsequently lysed using 1 M NaOH for 20 min. The cell lysates were collected and radioactivity was measured in a γ-counter (PerkinElmer), simultaneously with 100 µL of the radioactive incubation medium as a standard. Cells in separate wells were collected with Trypsin-EDTA (Gibco) for counting by the automated Countess II cell counter (Thermo Fisher Scientific; Bleiswijk, The Netherlands). Uptake was expressed as percentage added activity per 200,000 cells (% AA/200,000 cells), and specific uptake was corrected by subtracting the uptake measured in the block wells.

[2] = Stability in PBS at 37 °C (radio-HPLC / LC-MS); type: physicochemical; details: for Stability (% ± SD) PBS 1 h / Stability (% ± SD) PBS 4 h / Stability (% ± SD) PBS 24 h: % intact labeled ligand, 37 °C; for degradation: up to 24 h of incubation
Protocol: (§1) For the stability assessment of eFAP-6, [^111In]In-eFAP-6 or [^177Lu]Lu-eFAP-6 (~ 3–7 MBq, 20 µL) was mixed with 180 µL of PBS (0.01 M, pH 7.4) and incubated at 37 °C for up to 24 h. A sample of the PBS solution was directly injected on the radio-HPLC at 1, 4, and 24 h after incubation. Additionally, [^111In]In-eFAP-6 and [^177Lu]Lu-eFAP-6 (5–15 MBq, 50 µL) were incubated with 350 µL of commercially acquired mouse or human serum (Biolegend; San Diego, CA, USA) at 37 °C for up to 24 h. Following 1, 4, and 24 h of incubation, 50 µL of the solution were mixed with 50 µL of acetonitrile in an Eppendorf tube, and centrifuged at 5000× g for 20 min. The supernatant was then analyzed by radio-HPLC. Stability studies of eFAP-7 were performed by incubation of eFAP-7 (50 µL, 10^− 4 M) in 450 µL PBS or serum at 37 °C for up to 24 h. After 1, 4, and 24 h of incubation, 50 µL of the PBS incubation solution were directly analyzed by liquid chromatography-mass spectrometry (LC-MS), while 50 µL of the serum solution was mixed with 50 µL of acetonitrile in an Eppendorf tube, and centrifuged at 5000× g for 20 min, followed by LC-MS analyses.

[3] = Stability in human serum at 37 °C (radio-HPLC / LC-MS); type: in vitro ADME; details: for Stability (% ± SD) Human serum 1 h / Stability (% ± SD) Human serum 4 h / Stability (% ± SD) Human serum 24 h: % intact labeled ligand, 37 °C; for degradation: human serum (HS), up to 24 h of incubation
Protocol: as §1

[4] = Stability in mouse serum at 37 °C (radio-HPLC / LC-MS); type: in vitro ADME; details: for Stability (% ± SD) Mouse serum 1 h / Stability (% ± SD) Mouse serum 4 h / Stability (% ± SD) Mouse serum 24 h: % intact labeled ligand, 37 °C; for degradation: mouse serum (MS), up to 24 h of incubation
Protocol: as §1

[5] = LogD7.4 shake-flask method (n-octanol/PBS); type: physicochemical; details: n-octanol/PBS pH 7.4, shake-flask
Protocol: The distribution coefficients (LogD7.4) were determined using a shake-flask method, in which 2 µL (~ 0.5 MBq) of [^111In]In-eFAP-6 or 10 µL of eFAP-7 (10^− 4 M) was added to an Eppendorf tube containing 1 mL of PBS (0.01 M, pH 7.4) and n-octanol (v/v, 1:1). After vigorous vortexing, the solution was centrifuged at 2500× g for 15 min for phase separation. For radiolabeled eFAP-6, samples (3 × 10 µL) of the octanol and aqueous phases were taken out and measured in a 1480 Wizard automatic γ-counter (PerkinElmer; Groningen, The Netherlands). LogD7.4 values were calculated by using the following equation: LogD7.4 = log [(counts in octanol phase)/(counts in aqueous phase)]. For eFAP-7, samples (50 µL) of the octanol and aqueous phases were taken out and measured by LC-MS. LogD7.4 values were calculated by using the following equation: LogD7.4 = log [(area in octanol phase)/(area in aqueous phase)].

[6] = system: HT1080-huFAP and HT1080-WT tumor-bearing mice; experiment: Ex vivo biodistribution study in tumor-bearing mice; details: for Biodistribution Bone: femur; for Biodistribution Bone / Biodistribution Blood / Biodistribution Cecum / Biodistribution Colon / Biodistribution Heart / Biodistribution Kidneys / Biodistribution Liver / Biodistribution Lungs / Biodistribution Muscle / Biodistribution Pancreas / Biodistribution Salivary glands / Biodistribution Small intestines / Biodistribution Stomach / Biodistribution Tumor HT1080-WT / Biodistribution Tumor HT1080-huFAP: i.v., 2.6 MBq/200 pmol; for Biodistribution GI Tract: stomach, small intestines, cecum and colon combined
Text: All animal experiments were approved by the Erasmus MC Animal Welfare Committee and were in accordance with European law. Five-week-old male NMRI-Foxn1 nu/nu mice (Janvier; Le Genest-Saint-Isle, France) were housed in individually ventilated cages with a maximum of three mice per cage. After one week of acclimatization, mice were subcutaneously inoculated with HT1080-huFAP on the right shoulder and HT1080-WT on the left shoulder (2.5 × 10^6 cells in Hank’s Balanced Salt Solution (Gibco)). Tumors were allowed to grow for 10 days, resulting in tumor sizes of 537 ± 269 mm^3 and 305 ± 190 mm^3 for HT1080-huFAP and HT1080-WT, respectively, at the start of the experiment. The animals received 200 µL of [^177Lu]Lu-eFAP-6 (n=3/4 per group) or [^177Lu]Lu-FAPI-46 (n=3/4 per group) (2.6 MBq/200 pmol) by intravenous injection through the tail vein, andat 1, 4, and 24 h p.i. biodistribution studies were performed. Blood was collected by orbital puncture under isoflurane/O2 anesthesia, immediately followed by cervical dislocation. Hereafter the two tumor xenografts, pancreas, liver, GI-tract (stomach, small intestine, cecum, colon), kidneys (left and right), lungs, heart, salivary glands, muscle, and bone (femur), were collected, weighed, and measured in a y-counter (PerkinElmer), alongside 10 µL of the injected activity as standard. The results are expressed as the percentage injected dose per gram (% ID/g).
All statistical analyses were performed with GraphPad Prism version 9.0 (San Diego, California USA). All IC50 values were determined using a non-linear regression Log(inhibitor) vs. response analysis with variable slope (four parameters). For the in vivo results outliers were identified by a ROUT test (Q = 1%) and excluded. Next, a two-tailed student’s t-test was performed (*p < 0.05, **p < 0.01, ***p < 0.001). All experiments were performed in triplicate and repeated at least three times.

SMILES: N#C[C@@H]1CC(F)(F)CN1C(=O)CNC(=O)c1ccnc2c(OCCCNC(=O)CN3CCN(CC(=O)[O-])CCN(CC(=O)[O-])CCN(CC(=O)[O-])CC3)cccc12.[111In+3] [[^111In]In-eFAP-6]
- incubation time at peak uptake ([1]; 1 nM radiotracer, 5–120 min): 15 min
- peak uptake ([1]; 1 nM radiotracer, 5–120 min): 20.8 % AA/200,000 cells
- uptake on co-incubation with an excess of UAMC-1110 (block) ([1]; 1 mM UAMC-1110, 45 min): negligible uptake
- Stability (% ± SD) PBS 1 h [2]: 93.2 ± 0.5%
- Stability (% ± SD) PBS 4 h [2]: 93.1 ± 0.6%
- Stability (% ± SD) PBS 24 h [2]: 92.3 ± 0.6%
- degradation [2]: less than 10%
- Stability (% ± SD) Human serum 1 h [3]: 91.2 ± 0.1%
- Stability (% ± SD) Human serum 4 h [3]: 91.3 ± 0.7%
- Stability (% ± SD) Human serum 24 h [3]: 90.4 ± 0.8%
- degradation [3]: less than 10%
- Stability (% ± SD) Mouse serum 1 h [4]: 92.1 ± 1.2%
- Stability (% ± SD) Mouse serum 4 h [4]: 92.1 ± 1.4%
- Stability (% ± SD) Mouse serum 24 h [4]: 91.0 ± 0.9%
- degradation [4]: less than 10%
- LogD7.4 [5]: -3.90 ± 0.03

SMILES: N#C[C@@H]1CC(F)(F)CN1C(=O)CNC(=O)c1ccnc2c(OCCCNC(=O)CN3CCN(CC(=O)[O-])CCN(CC(=O)[O-])CCN(CC(=O)[O-])CC3)cccc12.[177Lu+3] [[^177Lu]Lu-eFAP-6]
- Stability (% ± SD) PBS 1 h [2]: 97.6 ± 1.1%
- Stability (% ± SD) PBS 4 h [2]: 97.3 ± 0.4%
- Stability (% ± SD) PBS 24 h [2]: 94.9 ± 0.6%
- degradation [2]: less than 5%
- Stability (% ± SD) Human serum 1 h [3]: 99.5 ± 0.0%
- Stability (% ± SD) Human serum 4 h [3]: 99.5 ± 0.0%
- Stability (% ± SD) Human serum 24 h [3]: 98.1 ± 0.3%
- degradation [3]: less than 5%
- Biodistribution Bone ([6]; 1 h p.i.): 1,80 ± 0,44 %ID/g
- Biodistribution Blood ([6]; 1 h p.i.): 0,38 ± 0,08 %ID/g
- Biodistribution Cecum ([6]; 1 h p.i.): 0,36 ± 0,01 %ID/g
- Biodistribution Colon ([6]; 1 h p.i.): 0,19 ± 0,05 %ID/g
- Biodistribution Heart ([6]; 1 h p.i.): 0,15 ± 0,04 %ID/g
- Biodistribution Kidneys ([6]; 1 h p.i.): 2,46 ± 0,83 %ID/g
- Biodistribution Liver ([6]; 1 h p.i.): 2,32 ± 0,43 %ID/g
- Biodistribution Lungs ([6]; 1 h p.i.): 0,33 ± 0,08 %ID/g
- Biodistribution Muscle ([6]; 1 h p.i.): 0,19 ± 0,03 %ID/g
- Biodistribution Pancreas ([6]; 1 h p.i.): 0,25 ± 0,02 %ID/g
- Biodistribution Salivary glands ([6]; 1 h p.i.): 0,56 ± 0,08 %ID/g
- Biodistribution Small intestines ([6]; 1 h p.i.): 0,33 ± 0,34 %ID/g
- Biodistribution Stomach ([6]; 1 h p.i.): 0,33 ± 0,32 %ID/g
- Biodistribution Tumor HT1080-WT ([6]; 1 h p.i.): 0,50 ± 0,11 %ID/g
- Biodistribution Tumor HT1080-huFAP ([6]; 1 h p.i.): 6,44 ± 1,09 %ID/g
- Biodistribution Bone ([6]; 4 h p.i.): 1,27 ± 0,24 %ID/g
- Biodistribution Blood ([6]; 4 h p.i.): 0,22 ± 0,07 %ID/g
- Biodistribution Cecum ([6]; 4 h p.i.): 0,32 ± 0,08 %ID/g
- Biodistribution Colon ([6]; 4 h p.i.): 0,14 ± 0,03 %ID/g
- Biodistribution Heart ([6]; 4 h p.i.): 0,10 ± 0,03 %ID/g
- Biodistribution Kidneys ([6]; 4 h p.i.): 1,11 ± 0,21 %ID/g
- Biodistribution Liver ([6]; 4 h p.i.): 2,87 ± 1,18 %ID/g
- Biodistribution Lungs ([6]; 4 h p.i.): 0,15 ± 0,03 %ID/g
- Biodistribution Muscle ([6]; 4 h p.i.): 0,16 ± 0,06 %ID/g
- Biodistribution Pancreas ([6]; 4 h p.i.): 0,18 ± 0,06 %ID/g
- Biodistribution Salivary glands ([6]; 4 h p.i.): 0,41 ± 0,14 %ID/g
- Biodistribution Small intestines ([6]; 4 h p.i.): 0,12 ± 0,04 %ID/g
- Biodistribution Stomach ([6]; 4 h p.i.): 0,11 ± 0,04 %ID/g
- Biodistribution Tumor HT1080-WT ([6]; 4 h p.i.): 0,36 ± 0,11 %ID/g
- Biodistribution Tumor HT1080-huFAP ([6]; 4 h p.i.): 5,92 ± 1,63 %ID/g
- Biodistribution GI Tract ([6]; 4 h p.i.): 0,17 ± 0,05 %ID/g
- Biodistribution Bone ([6]; 24 h p.i.): 0,19 ± 0,01 %ID/g
- Biodistribution Blood ([6]; 24 h p.i.): 0,01 ± 0,00 %ID/g
- Biodistribution Cecum ([6]; 24 h p.i.): 0,03 ± 0,00 %ID/g
- Biodistribution Colon ([6]; 24 h p.i.): 0,02 ± 0,01 %ID/g
- Biodistribution Heart ([6]; 24 h p.i.): 0,01 ± 0,00 %ID/g
- Biodistribution Liver ([6]; 24 h p.i.): 1,67 ± 1,07 %ID/g
- Biodistribution Lungs ([6]; 24 h p.i.): 0,01 ± 0,00 %ID/g
- Biodistribution Muscle ([6]; 24 h p.i.): 0,01 ± 0,00 %ID/g
- Biodistribution Pancreas ([6]; 24 h p.i.): 0,01 ± 0,00 %ID/g
- Biodistribution Salivary glands ([6]; 24 h p.i.): 0,02 ± 0,00 %ID/g
- Biodistribution Small intestines ([6]; 24 h p.i.): 0,02 ± 0,00 %ID/g
- Biodistribution Stomach ([6]; 24 h p.i.): 0,02 ± 0,01 %ID/g
- Biodistribution Tumor HT1080-WT ([6]; 24 h p.i.): 0,06 ± 0,01 %ID/g
- Biodistribution GI Tract ([6]; 24 h p.i.): 0,02 ± 0,00 %ID/g
- Stability (% ± SD) Mouse serum 1 h [4]: 99.3 ± 1.2%
- Stability (% ± SD) Mouse serum 4 h [4]: 99.5 ± 0.5%
- Stability (% ± SD) Mouse serum 24 h [4]: 98.1 ± 0.4%
- degradation [4]: less than 5%
